Values after ≈ are worked out from the molar mass of the structure shown.

Common to all, as to assay type: cell-based
Assay [1] concerns Mannheimia haemolytica MH 6357 (M7/2, reference strain, cattle infection strain). The assay can be described thus: MIC, broth-microdilution (CLSI VET01-A4), strain MH 6357. Conditions: Mannheimia haemolytica strain MH 6357, broth-microdilution; unit assumed. The method, boiled down:
(§1)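 Growth inhibition is scored visually on a doubling dilution series. The reported MIC corresponds to the lowest concentration free of turbidity, with results assessed under CLSI VET01-S3.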
(In general: Dilution methods test growth across graded concentrations, often in twofold steps.)

The subject of assay [2] is Mannheimia haemolytica MH 6374 (ATCC 33396, reference strain). The assay can be described thus: MIC, broth-microdilution (CLSI VET01-A4), strain MH 6374. As to conditions: Mannheimia haemolytica strain MH 6374, broth-microdilution; unit assumed. The method, boiled down:
as §1

Assay [3] relates to Mannheimia haemolytica MH 10720 (154, BRD field isolate). The experiment in a line: MIC, broth-microdilution (CLSI VET01-A4), strain MH 10720. Conditions: Mannheimia haemolytica strain MH 10720, broth-microdilution; unit assumed. In a few lines: as §1
Assay [4] deals with Mannheimia haemolytica MH 12587 (1071, BRD field isolate, macrolide-resistance: erm+, E+). The assay can be described thus: MIC, broth-microdilution (CLSI VET01-A4), strain MH 12587. Conditions: Mannheimia haemolytica strain MH 12587, broth-microdilution; unit assumed. The method, boiled down:
as §1

For assay [5], the system named is Mannheimia haemolytica MH 13065 (XB0446-6003.9, BRD field isolate). The experiment in a line: MIC, broth-microdilution (CLSI VET01-A4), strain MH 13065. As to conditions: Mannheimia haemolytica strain MH 13065, broth-microdilution; unit assumed. In a few lines: as §1
For assay [6], the system named is Mannheimia haemolytica MH 13093 (XB0472-6014.1, BRD field isolate). The assay can be described thus: MIC, broth-microdilution (CLSI VET01-A4), strain MH 13093. Conditions: Mannheimia haemolytica strain MH 13093, broth-microdilution; unit assumed. The method, boiled down:
as §1

Assay [7] relates to Pasteurella multocida PM 6267 (P 2225 (L386), reference strain, mouse infection strain). The experiment in a line: MIC, broth-microdilution (CLSI VET01-A4), strain PM 6267. As to conditions: Pasteurella multocida strain PM 6267, broth-microdilution; unit assumed. The method, boiled down:
as §1

The test system of assay [8] is Pasteurella multocida PM 6391 (ATCC 43137, reference strain). The assay can be described thus: MIC, broth-microdilution (CLSI VET01-A4), strain PM 6391. As to conditions: Pasteurella multocida strain PM 6391, broth-microdilution; unit assumed. The method, boiled down:
as §1

For assay [9], the system named is Pasteurella multocida PM 10775 (080130003051, BRD field isolate). The assay can be described thus: MIC, broth-microdilution (CLSI VET01-A4), strain PM 10775. As to conditions: Pasteurella multocida strain PM 10775, broth-microdilution; unit assumed. The method, boiled down: as §1
In assay [10] the test system is Pasteurella multocida PM 12080 (IV102277-0093, BRD field isolate). The assay can be described thus: MIC, broth-microdilution (CLSI VET01-A4), strain PM 12080. Conditions: Pasteurella multocida strain PM 12080, broth-microdilution; unit assumed. The method, boiled down: as §1

Consider `CSC(C)(C)[C@H](NC(=O)c1ccc(C#Cc2ccc(CNC3CC3)s2)cc1)C(=O)NO` [Compound 300], for which the MIC MH 6357 in assay [1] is 0.4 µg/mL (≈ 0.874 µM). This compound also returned an MIC MH 6374 in [2] of 0.8 µg/mL (≈ 1.75 µM). In assay [3], the MIC MH 10720 was not above 0.1 µg/mL. The compound also returned an MIC MH 12587 in [4] of 0.8 µg/mL (≈ 1.75 µM). The compound further gave an MIC MH 13065 in assay [5] of 0.4 µg/mL (≈ 0.874 µM). The same compound came in with an MIC MH 13093 in [6] of 0.8 µg/mL (≈ 1.75 µM). Further, the MIC PM 6267 in [7] is 0.4 µg/mL (≈ 0.874 µM). For the same compound, the MIC PM 6391 in assay [8] was not above 0.1 µg/mL. The compound further came in with an MIC PM 10775 in assay [9] not above 0.1 µg/mL. Moreover, in [10], the MIC PM 12080 is 0.4 µg/mL (≈ 0.874 µM).
`C=CCNCc1ccc(C#Cc2ccc(C(=O)N[C@H](C(=O)NO)C(C)(C)SC)cc2)s1` [Compound 301]: the MIC MH 6357 in assay [1] worked out at 0.4 µg/mL (≈ 0.874 µM). Besides, the MIC MH 6374 in assay [2] amounted to 0.8 µg/mL (≈ 1.75 µM). The MIC MH 10720 in assay [3] is not above 0.1 µg/mL. This compound had an MIC MH 12587 in [4] of 0.8 µg/mL (≈ 1.75 µM). This compound also registered an MIC MH 13065 in [5] of 0.4 µg/mL (≈ 0.874 µM). The compound further gave an MIC MH 13093 in [6] of 0.8 µg/mL (≈ 1.75 µM). For the same compound, the MIC PM 6267 in assay [7] worked out at 0.4 µg/mL (≈ 0.874 µM). The same compound returned an MIC PM 6391 in [8] of 1.6 µg/mL (≈ 3.5 µM). Moreover, the MIC PM 10775 in [9] is not above 0.1 µg/mL. Besides, the MIC PM 12080 in assay [10] turned out to be 0.4 µg/mL (≈ 0.874 µM).
The compound `COCCNCc1ccc(C#Cc2ccc(C(=O)N[C@H](C(=O)NO)C(C)(C)SC)cc2)s1` [Compound 302] registered an MIC MH 6357 in [1] of 0.4 µg/mL (≈ 0.841 µM). Moreover, in assay [2], the MIC MH 6374 worked out at 0.8 µg/mL (≈ 1.68 µM). In assay [3], the MIC MH 10720 was not above 0.1 µg/mL. Also, in assay [4], the MIC MH 12587 was 1.6 µg/mL (≈ 3.36 µM). In assay [5], the MIC MH 13065 was found to be 0.8 µg/mL (≈ 1.68 µM). Besides, the MIC MH 13093 in assay [6] was 0.8 µg/mL (≈ 1.68 µM). The MIC PM 6267 in assay [7] came out at 0.8 µg/mL (≈ 1.68 µM). In assay [8], this compound displayed an MIC PM 6391 of 0.8 µg/mL (≈ 1.68 µM). Further, the MIC PM 10775 in assay [9] is not above 0.1 µg/mL. Further, the MIC PM 12080 in assay [10] worked out at 0.4 µg/mL (≈ 0.841 µM).
Consider `CSC(C)(C)[C@H](NC(=O)c1ccc(C#Cc2ccc(CN3CCOCC3)s2)cc1)C(=O)NO` [Compound 303], for which, in assay [1], the MIC MH 6357 was determined as 0.2 µg/mL (≈ 0.41 µM). Also, the MIC MH 6374 in [2] was determined as 1.6 µg/mL (≈ 3.28 µM). The same compound came in with an MIC MH 10720 in assay [3] of 0.4 µg/mL (≈ 0.82 µM). The MIC MH 12587 in assay [4] worked out at 1.6 µg/mL (≈ 3.28 µM). In assay [5], the MIC MH 13065 was found to be 1.6 µg/mL (≈ 3.28 µM). In assay [6], this compound displayed an MIC MH 13093 of 1.6 µg/mL (≈ 3.28 µM). This compound also came in with an MIC PM 6267 in assay [7] of 1.6 µg/mL (≈ 3.28 µM). Further, the MIC PM 6391 in assay [8] was determined as 0.4 µg/mL (≈ 0.82 µM). The MIC PM 10775 in assay [9] is not above 0.1 µg/mL. The MIC PM 12080 in [10] was 0.4 µg/mL (≈ 0.82 µM).
Compound `CSC(C)(C)C(NC(=O)c1ccc(C#Cc2ccc(CNCc3ccccc3)s2)cc1)C(=O)NO` (stereo not shown) [Compound 304] came in with an MIC MH 6357 in assay [1] of 0.8 µg/mL (≈ 1.58 µM). Moreover, the MIC MH 6374 in assay [2] turned out to be 1.6 µg/mL (≈ 3.15 µM). For the same compound, the MIC MH 10720 in assay [3] was not above 0.1 µg/mL. The same compound showed an MIC MH 12587 in assay [4] of 1.6 µg/mL (≈ 3.15 µM). Besides, in assay [5], the MIC MH 13065 was found to be 1.6 µg/mL (≈ 3.15 µM). For the same compound, the MIC MH 13093 in assay [6] was found to be 3.1 µg/mL (≈ 6.11 µM). Moreover, in [7], the MIC PM 6267 stood at 1.6 µg/mL (≈ 3.15 µM). Also, the MIC PM 6391 in assay [8] is 1.6 µg/mL (≈ 3.15 µM). The compound also registered an MIC PM 10775 in [9] not above 0.1 µg/mL. This compound also had an MIC PM 12080 in [10] of 0.4 µg/mL (≈ 0.788 µM).
On to `COc1ccc(CNCc2ccc(C#Cc3ccc(C(=O)N[C@H](C(=O)NO)C(C)(C)SC)cc3)s2)cc1` [Compound 305], for which the MIC MH 6357 in assay [1] was 0.8 µg/mL (≈ 1.49 µM). The compound also came in with an MIC MH 6374 in assay [2] of 0.8 µg/mL (≈ 1.49 µM). Moreover, in assay [3], the MIC MH 10720 was 0.2 µg/mL (≈ 0.372 µM). Moreover, the MIC MH 12587 in assay [4] turned out to be 3.1 µg/mL (≈ 5.77 µM). The MIC MH 13065 in [5] turned out to be 0.8 µg/mL (≈ 1.49 µM). The compound further returned an MIC MH 13093 in assay [6] of 1.6 µg/mL (≈ 2.98 µM). The compound further yielded an MIC PM 6267 in assay [7] of 0.8 µg/mL (≈ 1.49 µM). This compound gave an MIC PM 6391 in assay [8] of 0.4 µg/mL (≈ 0.744 µM). In addition, the MIC PM 10775 in assay [9] was not above 0.1 µg/mL. Besides, in [10], the MIC PM 12080 was 0.4 µg/mL (≈ 0.744 µM).
In turn, `CSC(C)(C)[C@H](NC(=O)c1ccc(C#Cc2ccc(CNCc3cccnc3)s2)cc1)C(=O)NO` [Compound 306] displayed an MIC MH 6357 in [1] of 0.8 µg/mL (≈ 1.57 µM). The compound further returned an MIC MH 6374 in assay [2] of 0.8 µg/mL (≈ 1.57 µM). In assay [3], this compound gave an MIC MH 10720 of 0.2 µg/mL (≈ 0.393 µM). In [4], this compound returned an MIC MH 12587 of 3.1 µg/mL (≈ 6.09 µM). The same compound registered an MIC MH 13065 in assay [5] of 0.8 µg/mL (≈ 1.57 µM). Moreover, the MIC MH 13093 in [6] was 0.8 µg/mL (≈ 1.57 µM). This compound showed an MIC PM 6267 in [7] of 0.8 µg/mL (≈ 1.57 µM). The MIC PM 6391 in [8] came out at 0.4 µg/mL (≈ 0.786 µM). In addition, the MIC PM 10775 in [9] is not above 0.1 µg/mL. Besides, the MIC PM 12080 in [10] was 0.4 µg/mL (≈ 0.786 µM).

The record behind these values is patent US11034650B2, “Compounds useful for treating a Mannheimia haemolytica or Histophilus somni infection” (Intervet Inc., priority 2016, dated 2021).
